# Source: patent publication US6447748B1, “Benzamide compounds for cancer imaging and therapy” (Research Corporation Technologies, Inc., priority 1993, dated 2002)
# Read-outs that look alike come from different tables or passages of the source.
# Key:
# Sigma-2 = target: T1, Sigma-2 (Rattus norvegicus, UniProt Q5U3Y7); test: Sigma-2 binding assay, rat liver membranes, [3H]DTG + dextrallorphan (Example 9)
# T1 sequence (Q5U3Y7 1-176): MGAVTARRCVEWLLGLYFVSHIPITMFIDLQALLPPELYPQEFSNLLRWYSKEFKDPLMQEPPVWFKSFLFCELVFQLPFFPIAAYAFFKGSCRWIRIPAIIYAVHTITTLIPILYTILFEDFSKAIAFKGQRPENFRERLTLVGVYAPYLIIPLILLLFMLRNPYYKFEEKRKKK
# DOPAMINE D-2 = target: T2, DOPAMINE D-2 (Rattus norvegicus, UniProt P61169); test: Dopamine D-2 binding, rat brain, [3H]-(−)-sulpiride; settings: Table 2 of Example 9
# T2 construct: from tissue
# T2 sequence (P61169 whole entry): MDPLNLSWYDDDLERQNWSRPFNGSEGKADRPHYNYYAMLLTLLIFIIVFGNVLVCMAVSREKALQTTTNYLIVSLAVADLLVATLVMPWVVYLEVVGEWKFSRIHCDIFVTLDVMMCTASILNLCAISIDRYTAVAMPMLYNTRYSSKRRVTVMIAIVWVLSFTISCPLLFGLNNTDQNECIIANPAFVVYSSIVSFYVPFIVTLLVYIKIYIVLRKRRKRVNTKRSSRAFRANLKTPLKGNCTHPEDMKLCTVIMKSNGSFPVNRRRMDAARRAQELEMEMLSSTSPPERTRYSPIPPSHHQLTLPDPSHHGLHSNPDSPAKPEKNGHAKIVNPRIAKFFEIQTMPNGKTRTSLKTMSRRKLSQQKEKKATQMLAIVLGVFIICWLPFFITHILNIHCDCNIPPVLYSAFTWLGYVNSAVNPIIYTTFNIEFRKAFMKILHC
# PCP = PCP binding, rat brain, [3H]TCP; settings: Table 2 of Example 9
# [1] = target: MUSC (muscarinic receptors); type: binding; settings: read-out: Ki MUSC RAT BRAIN [3H]QNB
# Sigma-1 = Sigma-1 (Cavia porcellus, UniProt Q60492); test: Sigma-1 binding assay, guinea pig brain membranes, [3H]-(+)-pentazocine (Example 9)
# Sigma-1, sequence (Q60492 whole entry): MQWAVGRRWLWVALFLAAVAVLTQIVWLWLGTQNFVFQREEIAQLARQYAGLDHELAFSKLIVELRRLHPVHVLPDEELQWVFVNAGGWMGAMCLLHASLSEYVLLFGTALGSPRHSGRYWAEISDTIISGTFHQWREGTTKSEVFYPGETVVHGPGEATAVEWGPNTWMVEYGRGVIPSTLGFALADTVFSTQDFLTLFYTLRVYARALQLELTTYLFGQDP
# Method: A plasma membrane-mitochondrial (P2) membrane fraction was prepared from frozen guinea pig brains (Pel-Freeze, Rogers, Ak.), minus cerebellum. The brain tissue was thawed slowly before homogenization. A crude P2 membrane fraction was also prepared from the livers of Sprague-Dawley rats (150-220 g, Taconic Farms). The animals were decapitated and their livers were minced and homogenized. The tissue homogenization was carried out at 4° C. in 10 mM tris-HCl/0.32 M sucrose, pH=7.4 using 10 motor-driven strokes in a Potter-Elvehjem Teflon glass homogenizer. The crude homogenate was centrifuged for 10 min at 1000 g and the crude nuclear (P1) pellet was discarded. Supernatants were centrifuged at 31000×g for 15 min to yield a plasma membrane-mitochondrial pellet (P2). This pellet was resuspended in 3 ml/g in 10 mM tris-HCl, pH 7.4 and used for binding studies. Protein concentrations were determined by the method of Lowry.
# Filters were washed twice with ice-cold 10 mM tris-HCL. Prior to use, filters were soaked in 0.5% polyethyleneimine for about 30 min at 25° C.
# When the assay was terminated, the membranes were filtered and the filtrate washed twice as above. The radioactivity was counted in Ecoscint (National Diagnostics, Manville, N.J.) after an overnight extraction of counts.
# Ki values were calculated from the IC50 values using Cheng-Prusoff equation.
# [2] = tested on: human melanoma xenograft tumors (A2058); test: Scintigraphic imaging of nude mice bearing human melanoma xenografts; type: in vivo, Balb/c nu/nu mice
# Method: A2058 cells, derived from a brain metastasis of human malignant melanoma (Todaro et al. 1980 Proc. Natl. Acad. Sci. USA 77: 5258) were obtained from the National Institutes of Health. A human lung adenocarcinoma cell line, NCI-838, was obtained from the National Cancer Institute. These cells were grown in DMEM2 medium (Dulbecco's modification of Eagle's medium, […]) supplemented with 10% fetal bovine serum and 0.03% L-glutamine.
# Balb/c nu/nu mice (17-22 g) bearing human melanoma or non-small cell lung carcinoma xenograft tumors were injected intravenously with 0.2 ml of saline solution containing [^131I]PAB or [^131I]DAB (150-200 μCi). The animals were anesthetized with ketamine containing rompun before the imaging studies. The images were obtained using a scintigraphic camera with a pin-hole collimator at 6 and 24 hr. post injection.
# [3] = Biodistribution of 4-[125I]PEMP in Sprague Dawley rats; type: in vivo; settings: for Biodistribution Blood / Biodistribution Bone / Biodistribution Brain / Biodistribution Heart / Biodistribution Kidney / Biodistribution Liver / Biodistribution Lung / Biodistribution Muscle / Biodistribution Spleen / Biodistribution Thyroid: average of four rats
# Method: Balb/c nu/nu mice (17-22 g) were injected intravenously with 0.2 ml of a saline solution containing [^125I]PAB (5-6 μCi). […] The values obtained were normalized to a mouse weighing 20 g.
# Biodistribution experiments were performed to assess the clearance of N-[(4-[^125I]-iodophenyl)ethyl]-N-methyl-2-(1-piperidinyl)-ethylamine, 4-[^125I]PEMP. The compound was prepared according to the procedure described in Example 16. For in vivo studies, Sprague Dawley rats were used. Animal biodistribution assays were performed according to the procedure described in Example 11.
# [4] = read-out: Ki SIGMA-2 RAT LIVER [3H]DTG + DEX, Table 2 of Example 9
# [5] = read-out: Ki SIGMA-1 GUINEA PIG BRAIN [3H]-(+)-PENT, Table 2 of Example 9, 120 min at 25° C.
smiles,measurement,setting,value
"O=C(NC1CCN(Cc2ccccc2)CC1)c1ccccc1I [2-IBP, (N-Benzylpiperidin-4-yl)-2-iodobenzamide]",Ki,Sigma-2; [4],29.6 ± 0.49 nM
same,Ki,DOPAMINE D-2,63.4 ± 10.8 nM
same,Ki,PCP,> 100000 nM
same,Ki,[1],> 100000 nM
same,Ki,Sigma-1; [5],1.64 ± 0.15 nM
"O=C(NC1CCN(Cc2ccccc2)CC1)c1cccc(I)c1 [3-IBP, (N-Benzylpiperidin-4-yl)-3-iodobenzamide]",Ki,Sigma-2; [4],84.6 ± 2.5 nM
same,Ki,DOPAMINE D-2,24.8 ± 0.02 nM
same,Ki,PCP,> 100000 nM
same,Ki,[1],> 100000 nM
same,Ki,Sigma-1; [5],3.02 ± 1.06 nM
"CCN(CC)CCNC(=O)c1ccc([131I])cc1 [[^131I]DAB, ^131I-N-(diethylaminoethyl)4-iodobenzamide, reference compound]","detection in the tumor, scintigraphic image",[2]; 6 and 24 hrs. post injection,no [^131I]DAB was detected in the tumor
same,"uptake in the liver, scintigraphic image",[2]; 6 and 24 hrs. post-administration,considerable uptake
"CN(CCc1ccc([125I])cc1)CCN1CCCCC1 [4-[^125I]PEMP, N-[(4-[^125I]-iodophenyl)ethyl]-N-methyl-2-(1-piperidinyl)-ethylamine]",clearance,[3],"rapid clearance from the liver, lungs and kidneys"
same,Biodistribution Blood,[3]; 1 hr.,1.82 ± 0.20 % ID/whole organ
same,Biodistribution Bone,[3]; 1 hr.,0.23 ± 0.00 % ID/whole organ
same,Biodistribution Brain,[3]; 1 hr.,1.79 ± 0.21 % ID/whole organ
same,Biodistribution Heart,[3]; 1 hr.,0.30 ± 0.02 % ID/whole organ
same,Biodistribution Kidney,[3]; 1 hr.,4.57 ± 0.88 % ID/whole organ
same,Biodistribution Liver,[3]; 1 hr.,16.56 ± 2.19 % ID/whole organ
same,Biodistribution Lung,[3]; 1 hr.,4.91 ± 0.23 % ID/whole organ
same,Biodistribution Muscle,[3]; 1 hr.,15.60 ± 3.04 % ID/whole organ
same,Biodistribution Spleen,[3]; 1 hr.,2.52 ± 0.49 % ID/whole organ
same,Biodistribution Thyroid,[3]; 1 hr.,0.19 ± 0.02 % ID/whole organ
same,Biodistribution Blood,[3]; 6 hr.,2.59 ± 0.32 % ID/whole organ
same,Biodistribution Bone,[3]; 6 hr.,0.28 ± 0.01 % ID/whole organ
same,Biodistribution Brain,[3]; 6 hr.,0.57 ± 0.01 % ID/whole organ
same,Biodistribution Heart,[3]; 6 hr.,0.18 ± 0.00 % ID/whole organ
same,Biodistribution Kidney,[3]; 6 hr.,1.45 ± 0.03 % ID/whole organ
same,Biodistribution Liver,[3]; 6 hr.,6.39 ± 0.48 % ID/whole organ
same,Biodistribution Lung,[3]; 6 hr.,1.22 ± 0.12 % ID/whole organ
same,Biodistribution Muscle,[3]; 6 hr.,11.73 ± 0.63 % ID/whole organ
same,Biodistribution Spleen,[3]; 6 hr.,0.96 ± 0.10 % ID/whole organ
same,Biodistribution Thyroid,[3]; 6 hr.,0.20 ± 0.05 % ID/whole organ
same,Biodistribution Blood,[3]; 24 hr.,1.01 ± 0.12 % ID/whole organ
same,Biodistribution Bone,[3]; 24 hr.,0.17 ± 0.00 % ID/whole organ
same,Biodistribution Brain,[3]; 24 hr.,0.23 ± 0.00 % ID/whole organ
same,Biodistribution Heart,[3]; 24 hr.,0.05 ± 0.00 % ID/whole organ
same,Biodistribution Kidney,[3]; 24 hr.,0.50 ± 0.02 % ID/whole organ
same,Biodistribution Liver,[3]; 24 hr.,1.83 ± 0.16 % ID/whole organ
same,Biodistribution Lung,[3]; 24 hr.,0.34 ± 0.03 % ID/whole organ
same,Biodistribution Muscle,[3]; 24 hr.,5.55 ± 1.25 % ID/whole organ
same,Biodistribution Spleen,[3]; 24 hr.,0.28 ± 0.03 % ID/whole organ
same,Biodistribution Thyroid,[3]; 24 hr.,0.58 ± 0.03 % ID/whole organ
"CN(CCc1ccc(I)cc1)CCN1CCCCC1 [4-IPEMP, N-[(4-I-iodophenyl)ethyl]-N-methyl-2-(1-piperidinyl)-ethylamine]",Ki,Sigma-2,52.6 nM
same,Ki,Sigma-1,7.02 nM
"CN(CCc1ccc(Br)cc1)CCN1CCCCC1 [Br-PEMP, N-[2-(4-Bromophenyl)ethyl]-N-methyl-2-(1-piperidinyl)ethylamine]",Ki,Sigma-2,51.8 nM
same,Ki,Sigma-1,6.27 nM
